This note sets out measurements from patent publication US20200270233A1, “DHFR INHIBITORS, COMPOSITIONS, AND METHODS RELATED THERETO” (Vyera Pharmaceuticais LLC, priority 2017, published 2020).

Molecules are shown by their SMILES. Where two headings read alike, the source gives them in different places.

Experiment [1] has as its target T. cruzi DHFR (tcDHFR) (Trypanosoma cruzi, UniProt Q27793). The experiment in a line: biochemical. As to conditions: for Average DHFR selectivity (h/tc): hDHFR IC50/tcDHFR IC50.
Experiment [2] deals with T1, hDHFR (Homo sapiens, UniProt P00374).
T1 sequence (P00374 1-187): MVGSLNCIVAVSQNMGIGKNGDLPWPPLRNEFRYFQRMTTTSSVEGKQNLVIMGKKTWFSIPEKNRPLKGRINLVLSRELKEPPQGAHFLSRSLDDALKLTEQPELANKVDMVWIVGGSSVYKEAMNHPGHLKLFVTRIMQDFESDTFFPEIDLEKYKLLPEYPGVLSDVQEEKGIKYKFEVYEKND
Format: biochemical.

Experiment [3] concerns the target T2, T. gondii DHFR (tgDHFR) (Toxoplasma gondii, UniProt Q07422).
T2 sequence (Q07422 1-610): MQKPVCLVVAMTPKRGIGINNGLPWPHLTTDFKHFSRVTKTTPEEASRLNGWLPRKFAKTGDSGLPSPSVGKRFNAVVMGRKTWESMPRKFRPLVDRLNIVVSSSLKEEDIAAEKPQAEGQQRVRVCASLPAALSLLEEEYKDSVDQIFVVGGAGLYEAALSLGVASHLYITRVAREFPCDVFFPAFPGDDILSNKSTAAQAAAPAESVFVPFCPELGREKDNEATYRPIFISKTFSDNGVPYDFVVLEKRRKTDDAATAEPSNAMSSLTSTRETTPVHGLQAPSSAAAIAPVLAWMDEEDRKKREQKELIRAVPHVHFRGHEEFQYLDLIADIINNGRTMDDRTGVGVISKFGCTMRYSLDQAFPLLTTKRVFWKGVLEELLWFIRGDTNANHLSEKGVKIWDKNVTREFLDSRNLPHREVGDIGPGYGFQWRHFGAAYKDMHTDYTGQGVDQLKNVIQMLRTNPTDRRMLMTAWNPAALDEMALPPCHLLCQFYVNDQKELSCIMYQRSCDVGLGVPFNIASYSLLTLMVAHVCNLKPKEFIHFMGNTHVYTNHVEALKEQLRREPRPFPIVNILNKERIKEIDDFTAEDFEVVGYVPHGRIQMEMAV
The experiment in a line: biochemical. The note with it: Table 16; for Average DHFR selectivity (h/tg): hDHFR IC50/tgDHFR IC50; for IC50: pIC50 = -log10 IC50, at least three replicates, read-out: tgDHFR pIC50-DHFR primary assay (converted).

[4] abbreviates: Table 17, pIC50 = -log10 IC50, at least three replicates, read-out: tcDHFR pIC50-DHFR primary assay (converted).
The mark [5] stands for this setting: Table 16, pIC50 = -log10 IC50, at least three replicates, read-out: hDHFR pIC50-DHFR primary assay (converted).
Setting [6] is: Table 17, pIC50 = -log10 IC50, at least three replicates, read-out: hDHFR pIC50-DHFR primary assay (converted).

Chain of T. cruzi DHFR (tcDHFR) (Q27793 whole entry): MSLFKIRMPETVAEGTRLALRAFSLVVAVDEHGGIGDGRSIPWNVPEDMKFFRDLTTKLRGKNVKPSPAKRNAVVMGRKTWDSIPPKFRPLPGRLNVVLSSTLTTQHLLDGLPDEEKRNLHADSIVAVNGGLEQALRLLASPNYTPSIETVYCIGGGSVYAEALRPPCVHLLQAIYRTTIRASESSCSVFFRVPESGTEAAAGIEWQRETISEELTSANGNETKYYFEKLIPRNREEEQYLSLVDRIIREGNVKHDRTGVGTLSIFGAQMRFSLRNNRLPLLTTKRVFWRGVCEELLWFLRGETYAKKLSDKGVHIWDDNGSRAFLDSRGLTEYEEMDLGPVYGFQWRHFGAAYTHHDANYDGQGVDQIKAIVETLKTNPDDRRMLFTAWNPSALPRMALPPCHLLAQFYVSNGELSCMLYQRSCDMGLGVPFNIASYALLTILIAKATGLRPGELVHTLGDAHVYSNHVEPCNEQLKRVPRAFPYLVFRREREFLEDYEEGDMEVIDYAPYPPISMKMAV

Turning to `Nc1ncc(C2CCN(c3cccc(C4CCOCC4)c3)CC2)c(N)n1` [Compound 178], the “Average DHFR selectivity (h/tc)” value in experiment [1] (Table 17) worked out at 30.635. Also, the IC50 in experiment [1] (setting [4]) was 95.5 nM; in experiment [2] (setting [5]) it was 2880 nM; in experiment [2] (setting [6]), 2880 nM; in experiment [3], 27.5 nM. The “Average DHFR selectivity (h/tg)” value in experiment [3] was determined as 104.18.

As to `Nc1ncc(N2CCN(c3ccnc(-c4ccccc4)c3)CC2)c(N)n1` [Compound 166], in experiment [1] (Table 17), the “Average DHFR selectivity (h/tc)” value was 13.88. In addition, the IC50 in experiment [1] (setting [4]) was 7.76 nM; in experiment [2] (setting [5]), 107 nM; in experiment [2] (setting [6]) it was 107 nM; in experiment [3], 13.8 nM. Also, the “Average DHFR selectivity (h/tg)” value in experiment [3] worked out at 7.72.

For the molecule `COc1ncc(-c2ccccc2N2CCN(c3cnc(N)nc3N)CC2)cn1` [Compound 157], the “Average DHFR selectivity (h/tc)” value in experiment [1] (Table 17) came to 27.56. Besides, the IC50 in experiment [1] (setting [4]) is 184 nM; in experiment [2] (setting [5]), 5010 nM; in experiment [2] (setting [6]), 5070 nM; in experiment [3], 871 nM. The “Average DHFR selectivity (h/tg)” value in experiment [3] is 5.86.

With `Nc1ncc(C2=CCN(c3cccc(C4=CCOCC4)c3)CC2)c(N)n1` [Compound 185], in experiment [1] (Table 17), the “Average DHFR selectivity (h/tc)” value is reported as 6.715. Also, the IC50 in experiment [1] (setting [4]) is 47.9 nM; in experiment [2] (setting [5]), 316 nM; in experiment [2] (setting [6]), 320 nM; in experiment [3], 12.6 nM. The “Average DHFR selectivity (h/tg)” value in experiment [3] is reported as 25.02.

In the case of `Cc1ccc(-c2cc(N3CCN(c4cnc(N)nc4N)CC3)ccn2)cc1` [Compound 167], the “Average DHFR selectivity (h/tc)” value in experiment [1] (Table 17) was found to be 20.1. The IC50 in experiment [1] (setting [4]) was 8.04 nM; in experiment [2] (setting [5]), 158 nM; in experiment [2] (setting [6]) it was 158 nM; in experiment [3] it was 11 nM. Further, the “Average DHFR selectivity (h/tg)” value in experiment [3] came out at 14.56.

Turning to `Nc1ncc(N2CCN(c3cccc(OC4CCOC4)c3)CC2)c(N)n1` (stereo not drawn) [Compound 152, 5-(4-(3-((tetrahydrofuran-3-yl)oxy)phenyl)piperazin-1-yl)pyrimidine-2,4-diamine], in experiment [1] (Table 17), the “Average DHFR selectivity (h/tc)” value is 45.785. In addition, the IC50 in experiment [1] (setting [4]) was 25.4 nM; in experiment [2] (setting [5]) it was 1100 nM; in experiment [2] (setting [6]), 1110 nM; in experiment [3] it was 23.4 nM. Moreover, the “Average DHFR selectivity (h/tg)” value in experiment [3] was found to be 47.37.

On to `Nc1ncc(N2CCN(c3ccccc3C3=CCOCC3)CC2)c(N)n1` [Compound 193, 5-(4-(2-(3,6-dihydro-2H-pyran-4-yl)phenyl)piperazin-1-yl)pyrimidine-2,4-diamine], for which the “Average DHFR selectivity (h/tc)” value in experiment [1] (Table 17) was determined as 12.205. The IC50 in experiment [1] (setting [4]) was 73.3 nM; in experiment [2] (setting [5]) it was 871 nM; in experiment [2] (setting [6]) it was 871 nM; in experiment [3], 87.1 nM. Moreover, in experiment [3], the “Average DHFR selectivity (h/tg)” value is 10.47.

For `COc1ncc(-c2cccc(N3CCC(c4cnc(N)nc4N)CC3)c2)cn1` [Compound 183, 5-(1-(3-(2-methoxypyrimidin-5-yl)phenyl)piperidin-4-yl)pyrimidine-2,4-diamine], in experiment [1] (Table 17), the “Average DHFR selectivity (h/tc)” value is listed as 40.64. Also, the IC50 in experiment [1] (setting [4]) is 7.76 nM; in experiment [2] (setting [5]) it was 468 nM; in experiment [2] (setting [6]), 316 nM; in experiment [3], 3.39 nM. For the same molecule, in experiment [3], the “Average DHFR selectivity (h/tg)” value amounted to 146.21.

Consider `Nc1ncc(N2CCN(c3ccc(C4CCOCC4)cc3)CC2)c(N)n1` [Compound 173], for which the “Average DHFR selectivity (h/tc)” value in experiment [1] (Table 17) is listed as 30.425. In addition, the IC50 in experiment [1] (setting [4]) is 20.2 nM; in experiment [2] (setting [5]), 1620 nM; in experiment [2] (setting [6]) it was 610 nM; in experiment [3], 389 nM. For the same molecule, the “Average DHFR selectivity (h/tg)” value in experiment [3] is reported as 4.18.

For the molecule `Nc1ncc(N2CCN(c3ccnc(C(F)(F)F)c3)CC2)c(N)n1` [Compound 139, 5-(4-(2-(trifluoromethyl)pyridin-4-yl)piperazin-1-yl)pyrimidine-2,4-diamine], the “Average DHFR selectivity (h/tc)” value in experiment [1] (Table 17) is reported as 8.02. Moreover, the IC50 in experiment [1] (setting [4]) is 6.24 nM; in experiment [2] (setting [5]), 81.3 nM; in experiment [2] (setting [6]), 47.9 nM; in experiment [3], 39.8 nM. Besides, the “Average DHFR selectivity (h/tg)” value in experiment [3] is on record as 2.03.

Take `N#Cc1ccc(N2CCN(c3cnc(N)nc3N)CC2)cn1` [Compound 189, 5-(4-(2,4-diaminopyrimidin-5-yl)piperazin-1-yl)picolinonitrile]: the “Average DHFR selectivity (h/tc)” value in experiment [1] (Table 17) amounted to 41.01. Besides, the IC50 in experiment [1] (setting [4]) is 8.04 nM; in experiment [2] (setting [5]), 309 nM; in experiment [2] (setting [6]), 313 nM; in experiment [3], 224 nM. The “Average DHFR selectivity (h/tg)” value in experiment [3] turned out to be 1.39.

Take `Nc1ncc(N2CCN(c3ccnc(Cl)c3)CC2)c(N)n1` [Compound 147, 5-(4-(2-chloropyridin-4-yl)piperazin-1-yl)pyrimidine-2,4-diamine]: the “Average DHFR selectivity (h/tc)” value in experiment [1] (Table 17) was found to be 24.92. The IC50 is 7.41 nM in experiment [1] (setting [4]) and 180 nM in experiment [2] (setting [6]).

Take `Nc1ncc(N2CCN(c3ccc(C(F)(F)F)cc3)CC2)c(N)n1` [Compound 115, 5-(4-(4-(trifluoromethyl)phenyl)piperazin-1-yl)pyrimidine-2,4-diamine]: the IC50 is 6.17 nM in experiment [1] and 813 nM in experiment [2].

As for `Nc1ncc(N2CCN(c3ccc(C4=CCOCC4)cc3)CC2)c(N)n1` [Compound 191, 5-(4-(4-(3,6-dihydro-2H-pyran-4-yl)phenyl)piperazin-1-yl)pyrimidine-2,4-diamine], the “Average DHFR selectivity (h/tc)” value in experiment [1] (Table 17) worked out at 25.16. The IC50 in experiment [1] (setting [4]) is 2.82 nM; in experiment [2] (setting [6]), 68.4 nM.

For `COc1ccc(N2CCN(c3cnc(N)nc3N)CC2)cc1` [Compound 114, 5-(4-(4-methoxyphenyl)piperazin-1-yl)pyrimidine-2,4-diamine], the values for the IC50 in experiment [1] and in experiment [2] (setting [6]) were 5.62 nM and 813 nM, respectively.

Consider `Nc1ncc(N2CCN(c3cccc(C4CCCOC4)c3)CC2)c(N)n1` (stereo not drawn) [Compound 179], for which the “Average DHFR selectivity (h/tc)” value in experiment [1] (Table 17) was determined as 17.495. The results for the IC50 in experiment [1] (setting [4]) and in experiment [2] (setting [6]) were 28.8 nM and 484 nM, respectively.

For `Nc1ncc(N2CCN(c3ccc(F)nc3)CC2)c(N)n1` [Compound 156, 5-(4-(6-fluoropyridin-3-yl)piperazin-1-yl)pyrimidine-2,4-diamine], the “Average DHFR selectivity (h/tc)” value in experiment [1] (Table 17) amounted to 60.75. Moreover, the values for the IC50 in experiment [1] (setting [4]) and in experiment [2] (setting [6]) were 61.7 nM and 3720 nM, respectively.

With `Nc1ncc(N2CCN(c3cnc(C(F)(F)F)nc3)CC2)c(N)n1` [Compound 142, 5-(4-(2-(trifluoromethyl)pyrimidin-5-yl)piperazin-1-yl)pyrimidine-2,4-diamine], in experiment [1] (Table 17), the “Average DHFR selectivity (h/tc)” value turned out to be 206.5. Moreover, the IC50 in experiment [1] (setting [4]) was 38.5 nM; in experiment [2] (setting [6]) it was 7630 nM.

`Nc1ncc(N2CCN(c3ccc(C(F)(F)F)nc3)CC2)c(N)n1` [Compound 112]: the IC50 is 5.62 nM in experiment [1] and 2040 nM in experiment [2] (setting [6]).

As for `Cc1ccc(N2CCN(c3cnc(N)nc3N)CC2)cn1` [Compound 146, 5-(4-(6-methylpyridin-3-yl)piperazin-1-yl)pyrimidine-2,4-diamine], the “Average DHFR selectivity (h/tc)” value in experiment [1] (Table 17) is given as 222.395. For the same molecule, the results for the IC50 in experiment [1] (setting [4]) and in experiment [2] (setting [6]) were 33.5 nM and 7410 nM, respectively.

For `Nc1ncc(N2CCN(c3cc(Cl)ccn3)CC2)c(N)n1` [Compound 148, 5-(4-(4-chloropyridin-2-yl)piperazin-1-yl)pyrimidine-2,4-diamine], the “Average DHFR selectivity (h/tc)” value in experiment [1] (Table 17) was 94.81. Besides, the IC50 is 22.9 nM in experiment [1] (setting [4]) and 2190 nM in experiment [2] (setting [6]).
